Measured values published in patent US20260078144A1, “ACTIVE PEPTIDE, AND COMPOSITION AND USE THEREOF” (WINKEY TECHNOLOGY USA INC, priority 2023, published 2026).

Assays:
Type in all cases: cell-based
[1] = tested on: Human skin fibroblasts (HSF); experiment: Cell proliferation assay (MTT) on HSF cells; details: 72 h, FIG. 6
From the text: (§1) Human skin fibroblasts (HSF) were purchased from the Shanghai Cell Bank of China Center for Type Culture Collection under the Chinese Academy of Sciences.
Polypeptide group: Peptide (26), peptide (33), peptide (39) and peptide (49). The test concentrations of all the above samples were 1 ppm, 10 ppm, 50 ppm, 100 ppm, 200 ppm, 500 ppm and 1000 ppm.
Blank control group: PBS.
Positive control group: 2% DMSO.
(§2) Cells in good exponential growth phase were taken. A 0.25% trypsin digestion solution was added so that digestion allowed the adherent cells to fall off, counting 1 to 4×10^5 cells/mL, which were prepared into a cell suspension.
The cell suspension was inoculated into a 96-well plate with 200 µL/well, and cultured in a constant-temperature CO2 incubator for 24 h. […]
20 μL of 5 mg/mL MTT was added to each well and the incubation was continued in the 5% CO2 incubator at 37° C. for 4 h. […] After shaking the plate on a plate shaker for 5 min, a microplate reader was used to determine the OD value of each well at a wavelength of 570 nm, and the cell viability was calculated.
The MTT assay is a method of detecting cell survival and growth. The measured OD values are directly proportional to cell viability. […]

[2] = tested on: Human keratinocytes (HaCaT); experiment: Cell scratch assay; details: 24 h, FIG. 8; for order of effects on promoting the proliferation and migration of HaCaT cells: 50-100 ppm
Procedure: (§3) Human keratinocytes (HaCaT) were purchased from the Kunming Cell Bank of China Center for Type Culture Collection under the Chinese Academy of Sciences.
Polypeptide group: Peptide (26), peptide (33), peptide (39) and peptide (49). The test concentrations of all the above samples were 50 ppm and 100 ppm.
Positive control group: 50 U/mL of EGF.
A bottle of HaCaT cells in good exponential growth phase was taken. A 0.25% trypsin digestion solution was added so that digestion allowed the adherent cells to fall off, counting 1 to 4×10^5 cells/mL, which were prepared into a cell suspension.
The cells were inoculated into a 24-well plate at a density of 150,000 cells/well, with 2 mL cell suspension per well. After the cells attached to the wall and grew to 100% confluence, the culture medium was replaced with a medium containing 0.5%-1% fetal bovine serum to maintain the cells for 24 h for synchronization. A sterilized pipette tip was used to scratch a wound, the detached cells were washed off with PBS, and the samples to be tested were added. The incubation was continued in the 5% CO2 incubator at 37° C., and the migration of cells was observed under an optical microscope after 24 h.
The scratch migration experiment of cells can reflect the proliferation and repair ability of cells. A scratch assay was performed on the basis of HaCaT cells growing all over the dish, and the migration of cells was observed under an optical microscope 24 h after administration of the samples to evaluate the effect of the test samples on cell proliferation and migration.

[3] = tested on: Human keratinocytes (HaCaT); experiment: Determination of hyaluronic acid content; details: 10 ppm, 48 h, compared with blank control group, FIG. 9
Procedure: as §3
Polypeptide group: Peptide (26), peptide (33), peptide (39) and peptide (49). The test concentrations of all the above samples were 10 ppm.
A bottle of HaCaT cells in good exponential growth phase was taken. A 0.25% trypsin digestion solution was added so that digestion allowed the adherent cells to fall off, counting 1 to 4×10^6 cells/mL, which were prepared into a cell suspension.
The cells were inoculated into a 6-well plate at 10^5 cells/well, and grouped when the cells reached approximately 80% confluence. […]
After completion of the culture, cells were scraped off using a cell scraper, and 200 μL of RIPA lysis buffer was added to extract proteins. […] The total protein concentration was quantified to 1 mg/mL using the BCA method. […] The OD value of each well was measured in sequence at 570 nm using a microplate reader within 15 min.
Hyaluronic acid is one of the main matrix ingredients of the human skin epidermis and an important component of the skin barrier. […] This experiment measured the effect of the peptide of the present invention on the hyaluronic acid content to determine whether the peptide of the invention can increase the hyaluronic acid content and thus play a role in moisturizing and anti-aging repair.

[4] = tested on: Human skin fibroblasts (HSF); experiment: Collagen content assay (collagen I ELISA, UV photoaging model); details: 100 ppm, UV-irradiated HSF, 48 h, FIG. 10
Procedure: as §1
Polypeptide group: Palmitoyl pentapeptide-4 (Palm-Lys-Thr-Thr-Lys-Ser-OH), peptide (26), peptide (32), peptide (33), peptide (39), and peptide (49), all at a test concentration of 100 ppm;
HSF cells in good exponential growth phase were taken. A 0.25% trypsin digestion solution was added so that digestion allowed the adherent cells to fall off, counting 1 to 4×10^6 cells/mL, which were prepared into a cell suspension.
The cell suspension was inoculated into a 6-well plate at 10^5 cells/well. A UV photoaging model was established when the cells reached approximately 80% confluence. In the blank control group, 200 μL of PBS was added, supplemented with the culture medium to 800 μL, while no UV irradiation was performed. For the UV group and the polypeptide groups, a proper amount of PBS was added to wash the culture repeatedly until colorless, followed by adding 200 μL of PBS and irradiating under an 80 mJ/cm^2 UV light. The distance between the light source and the culture bottle was 15 cm. After irradiation, the PBS was removed. In the UV group, a PBS solution and culture medium were added to 800 μL; in the polypeptide groups, the culture medium and the samples diluted in a certain ratio were added to 800 μL. The blank control group, the UV group, and the polypeptide groups were further incubated in a 5% CO2 incubator at 37° C. for 48 h.
After completion of the culture, the cells were scraped off using a cell scraper, mixed by pipetting, and the cell protein was extracted using RIPA and quantified to 1 mg/mL with BCA. The procedure was performed according to the operation instructions of collagen I ELISA. The OD value of each well was measured in sequence at 450 nm using a microplate reader within 15 min.
Collagen is the most abundant protein found in connective tissue, and provides plumpness and firmness to the skin. […] In this experiment, UV-irradiated cells were treated with test samples, and the content of collagen I in corresponding cells was detected to determine whether the peptide of the present invention can promote collagen synthesis.

[5] = tested on: Human keratinocytes (HaCaT); experiment: Photoaging experiment (UV-irradiated HaCaT, MTT); details: 80 mJ/cm^2 UV, 24 h, compared with the UV group, FIG. 7
Procedure: as §3
Polypeptide group: Peptide (26), peptide (33), peptide (39) and peptide (49). The test concentrations of all the above samples were 1 ppm, 10 ppm, 50 ppm, 100 ppm, and 200 ppm.
as §2
The cell suspension was properly diluted and inoculated into a 96-well plate at 10,000 cells/well. When the cells reached approximately 80% confluence, a UV photoaging model was established. In the blank control group, 50 μL of PBS was added, and supplemented with the culture medium to 200 μL, while no UV irradiation was performed. For the UV group and the polypeptide groups, a proper amount of PBS was added to wash the culture repeatedly until colorless, followed by adding 50 μL of PBS and irradiating under an 80 mJ/cm^2 UV light. The distance between the light source and the culture bottle was 15 cm. After irradiation, the PBS was removed. In the UV group, a PBS solution and the culture medium were added to 200 μL; in the polypeptide groups, the culture medium and the samples diluted in a certain ratio were added to 200 μL. The blank control group, the UV group, and the polypeptide groups were further incubated in a 5% CO2 incubator at 37° C. for 24 h.
Then 22 μL of 5 mg/mL MTT was added to each well and the incubation was continued in the 5% CO2 incubator at 37° C. for 4 h. The original solution was removed and 150 µL/well of DMSO was added. After shaking the plate on a plate shaker for 5 min, a microplate reader was used to read the reference OD values at wavelengths of 490 nm and 630 nm.
Skin aging is affected by endogenous and exogenous factors, such as genetics, environmental exposure, UV irradiation, hormonal changes, etc. The accumulation of these factors, especially exposure to UV irradiation, leads to changes in structure, function and appearance of the skin. In this experiment, 80 mJ/cm^2 UV energy was selected for radiation to establish a skin photoaging model.

| Compound | order of effects on promoting the proliferation and migration of HaCaT cells [2] | collagen content (collagen I) compared with palmitoyl pentapeptide-4 [4] | activity of photoaged HaCaT keratinocytes ([5]; range of 1-200 ppm) | also measured |
| --- | --- | --- | --- | --- |
| C[S+](C)[O-] [DMSO, dimethyl sulfoxide, reference compound] |  |  |  | HSF cell viability (positive control) ([1]; 2% DMSO, compared with blank control group): toxic effect on HSF cells |
| Ac-Lys-Arg-Tyr-Gly-Trp-NH2 (Ac-KRYGW-NH2) [peptide (49)] | peptide (33)>peptide (26)>peptide (49)>peptide (39) | more significantly increase the collagen content | improve the activity of HaCaT keratinocytes to different degrees | hyaluronic acid content [3]: more superior technical effects |
| Ac-Lys-Lys-Trp-Val-Thr-His-NH2 (Ac-KKWVTH-NH2) [peptide (39)] | peptide (33)>peptide (26)>peptide (49)>peptide (39) | more significantly increase the collagen content |  | HSF cell activity / proliferation of HSF fibroblasts ([1]; low concentration of 1-10 ppm): significantly increase cell activity and promote the proliferation of HSF fibroblasts; activity of photoaged HaCaT keratinocytes ([5]; at 1 ppm, 100 ppm and 200 ppm): improve cell activity |
| Ac-Lys-Pro-Leu-Trp-His-Val-NH2 (Ac-KPLWHV-NH2) [peptide (33)] | peptide (33)>peptide (26)>peptide (49)>peptide (39) | more significantly increase the collagen content | improve the activity of HaCaT keratinocytes to different degrees |  |
| Ac-Lys-Pro-Leu-Trp-His-Val-OH (Ac-KPLWHV-OH) [peptide (32)] |  | more significantly increase the collagen content |  |  |
| Ac-Tyr-Gly-Trp-Lys-Lys-Gln-NH2 (Ac-YGWKKQ-NH2) [peptide (26)] | peptide (33)>peptide (26)>peptide (49)>peptide (39) | more significantly increase the collagen content | improve the activity of HaCaT keratinocytes to different degrees | hyaluronic acid content [3]: more superior technical effects |
| EGF: Positive control group: 50 U/mL of EGF [reference compound] |  |  |  | cell proliferation and migration of HaCaT cells (positive control) ([2]; 50 U/mL, compared with blank control group): obvious cell proliferation and migration |
